Patent US20200255828A1, “METHODS AND COMPOSITIONS FOR ALTERING FUNCTION AND STRUCTURE OF CHROMATIN LOOPS AND/OR DOMAINS” (THE BROAD INSTITUTE, INC., priority 2017, published 2020)

Tested on: histone modifications
Experiment: ChIP-Seq for histone modifications before and after auxin
Type: cell-based, human
From the text: Applicants first examined the effects of cohesin degradation on key epigenomic features associated with genome folding, using ChIP-Seq. Applicants examined the distribution of CTCF (associated with loop anchors) and the histone modifications H3K27me3, H3K36me3, H3K27Ac, H3K4me1, H3K4me3, H3K9me3, H4K16Ac, H4K20me3, H3K79me2, and H2.AZ (associated with compartment intervals). Cohesin loss had little effect on these features (FIG. 1C,D; FIG. 8C-E, see Methods).
ChIP-Seq for H3K27Ac, H3K4me1, H3K4me3, H3K36me3, H3K27me3, H3K9me3, H4K16Ac, H4K20me3, H3K79me2, and H2.AZ was performed using a native ChIP-Seq protocol. Chromatin from untreated HCT-116 RAD21-mAC cells or cells treated for 6 hours with 500 uM IAA was digested with Mnase (Sigma) in digestion buffer (50 mM Tris-HCl, pH7.6, 1 mM CaCl2), 0.2% Triton X-100, butyrate 5 mM) for 5′ at 37° C. and dialyzed against RIPA buffer for 2 hrs at 4° C. Five microgram of respective antibody was incubated with 40 μl of Dynabeads Protein A (or G) for 40 min at room temperature. Antibody-bound beads were added to 500 μl of sonicated or Mnase-digested chromatin, incubated at 4° C. overnight, and washed twice with RIPA buffer, twice with RIPA buffer containing 0.3 M NaCl, twice with LiCl buffer (0.25 M LiCl, 0.5% Igepal-630, 0.5% sodium deoxycholate), once with TE (pH 8.0) plus 0.2% Triton X-100, and once with TE (pH 8.0). ChIP DNA was purified by phenol-chloroform extraction followed by ethanol precipitation. Libraries were prepped for Illumina sequencing and 50 bp single-end reads were sequenced on a HiSeq2000 or 2500 (Illumina). Applicants also performed ChIP-Seq for RAD21 and CTCF following the same protocol as above, except that cells were fixed with 1% formaldehyde for 10 minutes at 37° C. and fixation was quenched by the addition of glycine to a final concentration of 125 mM for 10 minutes. The fixed cells were sonicated using a Branson sonifier at amplitude 35%, 12 cycles of 20 seconds of sonication and 30 seconds of pause. Antibody was added to the sonicated chromatin as above and the samples were further processed as above.
All ChIP-Seq data was aligned to hg19 with BWA […] (Li and Durbin, 2010), deduplicated using PicardTools, and analyzed with MACS 2.0 (Liu, 2014). All data was normalized against the corresponding input control using the ‘-c’ option of MACS 2.0. ChIP-Seq peaks were called using the ‘callpeak’ function of MACS 2.0 with default parameters. For H3K4me3 and H3K4me1, Applicants additionally used the ‘broad’ option of MACS 2.0 and merged close by peaks to identify broad peaks. […] Finally, in order to annotate broad-source domains, Applicants utilized RSEG (Song and Smith, 2011) using the following flags: ‘-b 25000’, ‘-i 20’, ‘-mode 2’.
Applicants calculated average signal over 5 kb bins across the entire genome and correlated signal between ChIP-Seq experiments before and after auxin treatment for each of CTCF, H3K27me3, H3K9me3, H3K4me1, H3K4me3 and H3K27Ac.
Additionally, Applicants examined overlaps of our ChIP-Seq peak annotations before and after auxin treatment for H3K4me3, H3K4me1 and H3K27Ac. […]

O=C(O)Cc1c[nH]c2ccccc12 [auxin, indole-3-acetic acid]
overlap of H3K4me1 ChIP-Seq peaks called before and after auxin treatment: 85% | overlap of H3K4me3 ChIP-Seq peaks called before and after auxin treatment: 90% | overlap of H3K27Ac ChIP-Seq peaks called before and after auxin treatment: 81% | Spearman's r of ChIP-Seq signal before vs after auxin treatment, H2.AZ (5 kb bins genome-wide): 0.96 | Spearman's r of ChIP-Seq signal before vs after auxin treatment, H3K4me1 (5 kb bins genome-wide): 0.94 | Spearman's r of ChIP-Seq signal before vs after auxin treatment, H3K4me3 (5 kb bins genome-wide): 0.70 | Spearman's r of ChIP-Seq signal before vs after auxin treatment, H3K9me3 (5 kb bins genome-wide): 0.95 | Spearman's r of ChIP-Seq signal before vs after auxin treatment, H3K27Ac (5 kb bins genome-wide): 0.90 | Spearman's r of ChIP-Seq signal before vs after auxin treatment, H3K27me3 (5 kb bins genome-wide): 0.95 | Spearman's r of ChIP-Seq signal before vs after auxin treatment, H3K36me3 (5 kb bins genome-wide): 0.94 | Spearman's r of ChIP-Seq signal before vs after auxin treatment, H3K79me2 (5 kb bins genome-wide): 0.96 | Spearman's r of ChIP-Seq signal before vs after auxin treatment, H4K16Ac (5 kb bins genome-wide): 0.95 | Spearman's r of ChIP-Seq signal before vs after auxin treatment, H4K20me3 (5 kb bins genome-wide): 0.89
